Experimental data published in US20210395239A1 (Hoffmann-La Roche Inc., priority 2018, published 2021).

Molecular target: T1, hTLR9 (Homo sapiens, UniProt Q9NR96)
T1 sequence (Q9NR96 26-1032): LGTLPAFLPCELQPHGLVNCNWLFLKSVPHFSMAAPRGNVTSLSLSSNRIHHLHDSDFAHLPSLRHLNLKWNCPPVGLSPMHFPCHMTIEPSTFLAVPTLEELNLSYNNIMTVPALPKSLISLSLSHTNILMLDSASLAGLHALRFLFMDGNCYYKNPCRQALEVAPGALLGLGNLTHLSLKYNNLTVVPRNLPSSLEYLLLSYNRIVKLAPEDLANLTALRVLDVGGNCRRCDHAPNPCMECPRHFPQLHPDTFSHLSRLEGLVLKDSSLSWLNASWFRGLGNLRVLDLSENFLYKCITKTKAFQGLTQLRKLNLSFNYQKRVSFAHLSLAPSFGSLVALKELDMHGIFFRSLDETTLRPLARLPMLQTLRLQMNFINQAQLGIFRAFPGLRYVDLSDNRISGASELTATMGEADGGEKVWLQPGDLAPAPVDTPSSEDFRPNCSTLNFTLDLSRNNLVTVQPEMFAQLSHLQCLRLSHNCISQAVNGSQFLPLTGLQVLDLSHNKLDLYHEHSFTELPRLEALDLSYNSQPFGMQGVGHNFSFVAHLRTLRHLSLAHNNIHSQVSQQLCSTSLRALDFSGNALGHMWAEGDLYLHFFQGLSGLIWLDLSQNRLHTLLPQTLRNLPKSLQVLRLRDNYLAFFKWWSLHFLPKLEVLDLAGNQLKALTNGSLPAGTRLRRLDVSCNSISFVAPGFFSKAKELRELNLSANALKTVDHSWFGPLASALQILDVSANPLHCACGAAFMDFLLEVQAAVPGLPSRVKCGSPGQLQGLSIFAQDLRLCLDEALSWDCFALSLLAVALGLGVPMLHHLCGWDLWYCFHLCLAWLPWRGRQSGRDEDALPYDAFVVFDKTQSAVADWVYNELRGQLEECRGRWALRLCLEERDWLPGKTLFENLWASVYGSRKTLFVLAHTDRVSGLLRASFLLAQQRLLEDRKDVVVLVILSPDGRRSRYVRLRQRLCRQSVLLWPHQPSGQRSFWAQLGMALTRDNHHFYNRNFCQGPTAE
Experiment: HEK293-Blue-hTLR-9 cells assay (SEAP reporter, ODN2006 stimulation)
Type: cell-based
Set-up: host or cells: HEK293 (HEK-Blue hTLR9)
Conditions: HEK293-Blue-hTLR9 cells, ODN2006, 20 hrs; read-out: HEK/hTLR9 IC50
Text: HEK293-Blue-hTLR-9 Cells Assay:
A stable HEK293-Blue-hTLR-9 cell line was purchased from InvivoGen (Cat. #: hkb-htlr9, San Diego, Calif., USA). These cells were originally designed for studying the stimulation of human TLR9 by monitoring the activation of NF-κB. A SEAP (secreted embryonic alkaline phosphatase) reporter gene was placed under the control of the IFN-β minimal promoter fused to five NF-κB and AP-1-binding sites. The SEAP was induced by activating NF-κB and AP-1 via stimulating HEK-Blue hTLR9 cells with TLR9 ligands. Therefore the reporter expression was declined by TLR9 antagonist under the stimulation of a ligand, such as ODN2006 (Cat. #: tlrl-2006-1, Invivogen, San Diego, Calif., USA), for incubation of 20 hrs. The cell culture supernatant SEAP reporter activity was determined using QUANTI-Blue™ kit (Cat. #: rep-qb1, Invivogen, San Diego, Calif., USA) at a wavelength of 640 nm, a detection medium that turns purple or blue in the presence of alkaline phosphatase.
HEK293-Blue-hTLR9 cells were incubated at a density of 250,000˜450,000 cells/mL in a volume of 170 μL in a 96-well plate in Dulbecco's Modified Eagle's medium (DMEM) containing 4.5 g/L glucose, 50 U/mL penicillin, […], 2 mM L-glutamine, 10% (v/v) heat-inactivated fetal bovine serum with addition of 20 μL test compound in a serial dilution in the presence of final DMSO at 1% and 10 μL of 20 uM ODN2006 in above DMEM, perform incubation under 37° C. in a CO2 incubator for 20 hrs. Then 20 μL of the supernatant from each well was incubated with 180 μL Quanti-blue substrate solution at 37° C. for 2 h and the absorbance was read at 620-655 nm using a spectrophotometer. The signaling pathway that TLR9 activation leads to downstream NF-κB activation has been widely accepted, and therefore similar reporter assay was modified for evaluating TLR9 antagonist.

Row | SMILES | IC50
1 | CO[C@H]1CN(c2cc(C)nc(N3CCN(C[C@H]4CN(c5ccc(C#N)c6nccnc56)C[C@@H](C)O4)CC3)n2)C[C@H]1N [Example 122, 8-[(2S,6R)-2-[[4-[4-[(3R,4S)-3-amino-4-methoxy-pyrrolidin-1-yl]-6-methyl-pyrimidin-2-yl]piperazin-1-yl]methyl]-6-methyl-morpholin-4-yl]quinoxaline-5-carbonitrile] | 31 nM
2 | Cc1cc(N2C[C@@H](N)[C@](C)(O)C2)nc(N2CCN(C[C@H]3CN(c4ccc(C#N)c5nccnc45)C[C@@H](C)O3)CC2)n1 [Example 125, 8-[(2S,6R)-2-[[4-[4-[(3R,4R)-4-amino-3-hydroxy-3-methyl-pyrrolidin-1-yl]-6-methyl-pyrimidin-2-yl]piperazin-1-yl]methyl]-6-methyl-morpholin-4-yl]quinoxaline-5-carbonitrile] | 83 nM
3 | [2H]c1ccc2c(N3C[C@H](CN4CCN(c5ccc(N6CC(C)(N)C6)nc5)CC4)O[C@H](C)C3)ccc(C#N)c2n1 [Example 132, 5-[(2S,6R)-2-[[4-[6-(3-amino-3-methyl-azetidin-1-yl)-3-pyridyl]piperazin-1-yl]methyl]-6-methyl-morpholin-4-yl]-2-deuterio-quinoline-8-carbonitrile] | 140 nM
4 | C[C@@H]1CN(c2ccc(C#N)c3ncccc23)C[C@H](CN2CC(c3cccc(N4CCNCC4)c3)C2)O1 [Example 4, 5-[(2R,6S)-2-methyl-6-[[3-(3-piperazin-1-ylphenyl)azetidin-1-yl]methyl]morpholin-4-yl]quinoline-8-carbonitrile] | 68 nM
5 | Cc1ccc(N2C[C@H](CN3CCN(c4ccnc(N5CCN[C@@H](C)C5)n4)CC3)O[C@H](C)C2)c2nccnc12 [Example 127, (2R,6S)-2-methyl-6-[[4-[2-[(3S)-3-methylpiperazin-1-yl]pyrimidin-4-yl]piperazin-1-yl]methyl]-4-(8-methylquinoxalin-5-yl)morpholine] | 149 nM
6 | Cc1cc(N2CCNCC2)nc(N2CCN(C[C@H]3CN(c4ccc(C#N)c5nccnc45)C[C@@H](C)O3)CC2)n1 [Example 114, 8-[(2R,6S)-2-methyl-6-[[4-(4-methyl-6-piperazin-1-yl-pyrimidin-2-yl)piperazin-1-yl]methyl]morpholin-4-yl]quinoxaline-5-carbonitrile] | 62 nM
7 | COC1CCN(c2nccc(N3CCN(C[C@H]4CN(c5ccc(C#N)c6ncccc56)C[C@@H](C)O4)CC3)n2)CC1N (stereo partly drawn) [Example 109, 5-[(2S,6R)-2-[[4-[2-(3-amino-4-methoxy-1-piperidyl)pyrimidin-4-yl]piperazin-1-yl]methyl]-6-methyl-morpholin-4-yl]quinoline-8-carbonitrile] | 46 nM
8 | CO[C@H]1CN(c2nc(C)cc(N3CCN(C[C@H]4CN(c5ccc(C#N)c6nccnc56)C[C@@H](C)O4)CC3)n2)C[C@@H]1N [Example 106, 8-[(2S,6R)-2-[[4-[2-[(3S,4S)-3-amino-4-methoxy-pyrrolidin-1-yl]-6-methyl-pyrimidin-4-yl]piperazin-1-yl]methyl]-6-methyl-morpholin-4-yl]quinoxaline-5-carbonitrile] | 46 nM
9 | Cc1cc(N2C[C@@H](N)[C@@H](F)C2)nc(N2CCN(C[C@H]3CN(c4ccc(C#N)c5nccnc45)C[C@@H](C)O3)CC2)n1 [Example 115, 8-[(2S,6R)-2-[[4-[4-[(3R,4S)-3-amino-4-fluoro-pyrrolidin-1-yl]-6-methyl-pyrimidin-2-yl]piperazin-1-yl]methyl]-6-methyl-morpholin-4-yl]quinoxaline-5-carbonitrile] | 38 nM
10 | CO[C@H]1CN(c2nccc(N3CCN(C[C@H]4CN(c5ccc(C#N)c6nccnc56)C[C@@H](C)O4)CC3)n2)C[C@@H]1N [Example 99, 8-[(2S,6R)-2-[[4-[2-[(3S,4S)-3-amino-4-methoxy-pyrrolidin-1-yl]pyrimidin-4-yl]piperazin-1-yl]methyl]-6-methyl-morpholin-4-yl]quinoxaline-5-carbonitrile] | 63 nM

Continued, values first:

Row | IC50 | SMILES
11 | 78 nM | [2H]c1ccc2c(N3C[C@H](CN4CCN(c5ncc(N6CC(C)(N)C6)cc5C)CC4)O[C@H](C)C3)ccc(C#N)c2n1 [Example 139, 5-[(2S,6R)-2-[[4-[5-(3-amino-3-methyl-azetidin-1-yl)-3-methyl-2-pyridyl]piperazin-1-yl]methyl]-6-methyl-morpholin-4-yl]-2-deuterio-quinoline-8-carbonitrile]
12 | 46 nM | [2H]c1ccc2c(N3C[C@H](CN4CC(O)(c5ccc(N6CC(C)(N)C6)cc5)C4)O[C@H](C)C3)ccc(C#N)c2n1 [Example 156, 5-[(2S,6R)-2-[[3-[4-(3-amino-3-methyl-azetidin-1-yl)phenyl]-3-hydroxy-azetidin-1-yl]methyl]-6-methyl-morpholin-4-yl]-2-deuterio-quinoline-8-carbonitrile]
13 | 31 nM | C[C@@H]1CN(c2ccc(C#N)n3nccc23)C[C@H](CN2CC(c3ccc(N4CC(C)(N)C4)nc3)C2)O1 [Example 157, 4-[(2S,6R)-2-[[3-[6-(3-amino-3-methyl-azetidin-1-yl)-3-pyridyl]azetidin-1-yl]methyl]-6-methyl-morpholin-4-yl]pyrazolo[1,5-a]pyridine-7-carbonitrile]
14 | 86 nM | CO[C@@H]1CN(c2ccc(C3CN(C[C@H]4CN(c5ccc(C#N)n6ncc(F)c56)C[C@@H](C)O4)C3)cn2)C[C@H]1N [Example 164, 4-[(2S,6R)-2-[[3-[6-[(3R,4R)-3-amino-4-methoxy-pyrrolidin-1-yl]-3-pyridyl]azetidin-1-yl]methyl]-6-methyl-morpholin-4-yl]-3-fluoro-pyrazolo[1,5-a]pyridine-7-carbonitrile]
15 | 68 nM | [2H]c1ccc2c(N3C[C@H](CN4CCN(c5cnc(N6CC(C)(N)C6)cc5C)CC4)O[C@H](C)C3)ccc(C#N)c2n1 [Example 133, 5-[(2S,6R)-2-[[4-[6-(3-amino-3-methyl-azetidin-1-yl)-4-methyl-3-pyridyl]piperazin-1-yl]methyl]-6-methyl-morpholin-4-yl]-2-deuterio-quinoline-8-carbonitrile]
16 | 56 nM | [2H]c1ccc2c(N3C[C@H](CN4CCN(c5nc(C)cc(N6CC(C)(N)C6)n5)CC4)O[C@H](C)C3)ccc(C#N)c2n1 [Example 135, 5-[(2S,6R)-2-[[4-[4-(3-amino-3-methyl-azetidin-1-yl)-6-methyl-pyrimidin-2-yl]piperazin-1-yl]methyl]-6-methyl-morpholin-4-yl]-2-deuterio-quinoline-8-carbonitrile]
17 | 31 nM | [2H]c1ccc2c(N3C[C@H](CN4CC(c5cnc(N6CC(C)(N)C6)cc5C)C4)O[C@H](C)C3)ccc(C#N)c2n1 [Example 145, 5-[(2S,6R)-2-[[3-[6-(3-amino-3-methyl-azetidin-1-yl)-4-methyl-3-pyridyl]azetidin-1-yl]methyl]-6-methyl-morpholin-4-yl]-2-deuterio-quinoline-8-carbonitrile]
18 | 31 nM | [2H]c1ccc2c(N3C[C@H](CN4CC(c5cnc(N6C[C@@H](N)[C@H](OC)C6)cc5C)C4)O[C@H](C)C3)ccc(C#N)c2n1 [Example 146, 5-[(2S,6R)-2-[[3-[6-[(3R,4R)-3-amino-4-methoxy-pyrrolidin-1-yl]-4-methyl-3-pyridyl]azetidin-1-yl]methyl]-6-methyl-morpholin-4-yl]-2-deuterio-quinoline-8-carbonitrile]
